The values below come from PMC9826262, “Discovery of Benzo[d]imidazole‐6‐sulfonamides as Bromodomain and Extra‐Terminal Domain (BET) Inhibitors with Selectivity for the First Bromodomain” (Chemmedchem, 2022).

As a reminder, the Papp is the rate of passage across a membrane or cell layer, normalised by area and donor concentration. A low value points to slow passage. The term Ki denotes a dissociation constant, usually derived from enzyme kinetics or from competition with a known ligand. As a reminder, the IC50 is the midpoint of a concentration-inhibition curve. Broadly, the Kd is a measure of binding affinity in units of concentration.

The nature of data set [1]: CYPs and UGTs dual-activity microsomal stability. Type of data set: in vitro ADME. Conditions: human liver microsomes; alamethicin, NADPH and UDPGA cofactors; 37 °C, 60 min. The procedure:
In this study, the CYPs and UGTs “dual‐activity” microsomal stability assay was carried out to follow the loss of the test compounds over time under CYP‐ and UGT‐mediated metabolic pathways. In detail, the compounds were added to human liver microsomes in the presence of alamethicin, NADPH and UDPGA as cofactors.[24] Alamethicin, a pore‐forming peptide, was used to activate UGTs in human liver microsomes. Testosterone was used as positive control while the negative control was prepared by incubation of the compounds without cofactors up to 60 min. The negative control is essential to detect problems such as non‐specific protein binding or heat instability.
Instrumentation and chromatographic conditions. The metabolic stability of investigated compounds was monitored using a Nexera UHPLC system (Shimadzu, Kyoto, Japan) consisting of a CBM‐20A controller, two LC‐30AD pumps, an SPD‐M20A photo diode array detector, a CTO‐20AC column oven and, a SIL‐30AC autosampler. The chromatographic analyses were accomplished on a Kinetex® Evo C18 column, 150×2.1 mm×2.6 μm (Phenomenex®, Bologna, Italy) maintained at 40 °C. The optimal mobile phase consisted of 0.1 % HCOOH/H2O v/v (A) and 0.1 % HCOOH/ACN v/v (B) delivered at constant flow rate of 0.5 mL/min ^−1. Analysis was performed in gradient elution as follows: 0–8.00 min, 5–95 % B; 8.00–10.00 min, isocratic to 95 % B; then five minutes for column re‐equilibration. Data acquisition was set in the range 190–800 nm and chromatograms were monitored at 254 nm.
In vitro drug metabolism using human liver microsomes. 25 μL of 5 mg/mL human […] microsomes (Thermo Fisher Scientific, Bremen, Germany) were pre‐incubated with 0.625 μL of 100 μg/mL alamethicin. Then 2.5 μL of sample (5 mM) with 168 μL of 100 mM phosphate buffer (pH 7.4), 4 μL of 500 mM MgCl2 were added, the mixture was incubated at 37 °C for 5 min. Optimal UGT activity can be achieved by the addition of MgCl2 and alamethicin as pore forming antibiotic. These components allow for the efficient transfer of a glucuronide product and the cofactor uridine 5′‐diphospho‐α‐D‐glucuronic acid (UDPGA) within the microsomal matrix. The reaction has started by adding 50 μL of mix NADPH 20 mM and UDP‐GlcUA 20 mM as cofactors (1 : 1 v/v) and carried out 37 °C for 60 min in a Thermomixer comfort (Eppendorf, Hamburg, Germany). The reaction was stopped by the addition of 200 μL ice‐cold acetonitrile and then samples were centrifuged at 14,000 rpm at 25 °C for 5 min (Eppendorf® microcentrifuge 5424, Hamburg, Germany). The supernatants were collected and injected in UHPLC. The control at 0 min was obtained by addition of ice‐cold acetonitrile immediately after incubation with microsomes. […]

A short description of data set [2]: Nephelometric solubility determination. Format: physicochemical. Conditions: for solubility: aqueous buffer, kinetic from dmso stock, PBS with 1 % DMSO, tested at 50 and 100 μM, room temperature, read-out: Solubility (highest concentration where no precipitate was detected). The method, then:
Solubility determination. Solubility of the compounds was determined using Nepheloskan Ascent® (Labsystems). The experiments were performed at room temperature in 96‐well plates in a final volume of 300 μL. Each compound was tested in quadruplicate at the concentrations of 50 and 100 μM in PBS with 1 % DMSO. The measurements were performed at 4 different time points (T0, 30 min, 60 min, 90 min) from the preparation of the samples. Data obtained were compared to control (PBS with 1 % DMSO) and the ratio sample/control was determined for each compound. Compounds are considered soluble if the ratio is≤3.

Another data set is described as follows: in vitro. Conditions: PAMPA, pH 7.4. The method, then: Membrane permeability was estimated by the well‐validated parallel artificial membrane permeability assay (PAMPA) technique.[17, 26]
Parallel Artificial Membrane Permeability Assay (PAMPA). Donor solution (0.2 mM) was prepared by diluting 20 mM dimethyl sulfoxide (DMSO) compound stock solution using phosphate buffer (pH 7.4, 0.01 M). Filters were coated with 5 μL of a 1 % (w/v) dodecane solution of L‐α‐phosphatidylcholine. Donor solution (150 μL) was added to each well of the filter plate. To each well of the acceptor plate, 300 μL of solution (5 % DMSO in phosphate buffer) was added. […] The sandwich was incubated for 24 h at room temperature under gentle shaking. After the incubation time, the sandwich plates were separated and 250 μL of the acceptor plate was transferred to a UV quartz microtiter plate and measured by UV spectroscopy, using a Multiskan GO microplate spectrophotometer (Thermo Fisher Scientific) at 250–500 nm at a step of 5 nm. Reference solutions (250 μL) were prepared diluting the sample stock solutions to the same concentration as that with no membrane barrier.
In this equation, VR is the volume of the acceptor compartment (0.3 cm^3), VD is the donor volume (0.15 cm^3), A is the accessible filter area (0.24 cm^2), and t is the incubation time in seconds.

The next data set deals with T1, BRD4 BD1 (Homo sapiens, UniProt O60885).
T1 construct: The microsyringe was loaded with a solution of BRD4 BD1; His6 (cleaved yes); made in house; host or cells: E. coli BL21(DE3)-R3-pRARE2
Particulars: cited from earlier work.

The target in a further data set is BRD4 BD2. Conditions: cited from earlier work.
Data set [3] has as its system BD1 and BD2 of BRD2 and BRD3. Conditions: cited from earlier work.
Data set [4] deals with BD1 and BD2 of BET proteins (BRD2, BRD3, BRD4 and BRDT). As to the kind of experiment: Protein stability shift assay (ΔTm), BET bromodomains. Type of data set: binding. Conditions: compound 10 μM; protein 2 μM. The method, then: The compounds were tested at 10 μM fixed dose and the pan‐BET inhibitor 1 was used as a reference compound.[22] The results obtained from this screening supported our design strategy.
Protein stability shift assay. Thermal melting experiments were carried out using an Mx3005p Real Time PCR machine (Stratagene). Proteins were buffered in 10 mM HEPES pH 7.5, 500 mM NaCl and assayed in a 96‐well plate at a final concentration of 2 μM in 20 μL volume. Compounds were added at a final concentration of 10 μM. SYPRO Orange (Molecular Probes) was added as a fluorescence probe at a dilution of 1 : 1000. Excitation and emission filters for the SYPRO‐Orange dye were set to 465 nm and 590 nm, respectively. The temperature was raised with a step of 3 °C per minute from 25 °C to 96 °C and fluorescence readings were taken at each interval. The temperature dependence of the fluorescence during the protein denaturation process was approximated by the equation yT=yF+yU-yF/1+e^ΔuGT/RT
where ΔuG(T) is the difference in unfolding free energy between the folded and unfolded state, R is the gas constant and yF and yU are the fluorescence intensity of the probe in the presence of completely folded and unfolded protein, respectively. The baselines of the denatured and native states were approximated by a linear fit. The observed temperature shifts, ΔTm obs, were recorded as the difference between the transition midpoints of sample and reference wells containing protein without ligand in the same plate and determined by non‐linear least squares fit.

Another data set concerns the target T2, BRD2(BD1) (Homo sapiens, UniProt P25440).
T2 construct: tested on BD1 and BD2 domains (6×His‐tagged) of each BET protein
Briefly: TR-FRET displacement binding assay. Conditions: AlexaFluor647 derivative of 1. On the technique in general: Time-resolved FRET reads energy transfer from a long-lived donor to a nearby acceptor.

Another data set concerns the target T3, BRD2(BD2) (Homo sapiens, UniProt P25440).
T3 construct: tested on BD1 and BD2 domains (6×His‐tagged) of each BET protein
Briefly: TR-FRET displacement binding assay. Particulars: AlexaFluor647 derivative of 1.

In a further data set the target is T4, BRD3(BD1) (Homo sapiens, UniProt Q15059).
T4 construct: tested on BD1 and BD2 domains (6×His‐tagged) of each BET protein
Briefly: TR-FRET displacement binding assay. Particulars: AlexaFluor647 derivative of 1.

Another data set deals with T5, BRD3(BD2) (Homo sapiens, UniProt Q15059).
T5 construct: tested on BD1 and BD2 domains (6×His‐tagged) of each BET protein
As to the kind of experiment: TR-FRET displacement binding assay. Particulars: AlexaFluor647 derivative of 1.

A further data set deals with HeLa cells. Briefly: MTT cell viability assay. Type of data set: cell-based, human. Conditions: 50 μM, 72 h. The procedure: Cells were incubated with different compound concentrations (50 μM, 5 μM and 0.5 μM) for different times (24, 48 and 72 h) and cellular viability was determined performing an MTT (3‐(4,5‐dimethylthiazol‐2‐yl)‐2,5‐diphenyl‐2H‐tetrazolium bromide) assay.
Cell Viability Assay. HeLa cell line was cultured in DMEM supplemented with 10 % (v/v) fetal bovine serum, 100 U/mL penicillin, 100 μg/mL streptomycin, and 2 mM L‐glutamine at 37 °C in a 5 % CO2 atmosphere. Cell viability was determined using a 3‐(4,5‐dimethylthiazol‐2‐yl)‐2,5‐diphenyltetrazolium bromide (MTT) assay. […] The mitochondrial dependent reduction of MTT to formazan was used to assess cell viability. Live cells reduce yellow MTT to purple formazan. The formazan was solubilized in DMSO, and absorbance was measured at 550 nm and corrected for 620 nm background. Experiments were performed in quadruplicate and all values are expressed as the percentage of the control containing 1 % DMSO.
(Formazan colour is commonly taken as a measure of viable cells.)

On the set-up of data set [5]: method as in PMID 32193360. Conditions: cited from earlier work.
For the next data set, the system named is BD1 in all BET proteins. Particulars: cited from earlier work.
The subject of another data set is MV4‐11 cell line. Particulars: read-out: IC50 cell growth MV4‐11; cited from earlier work.
Another data set has as its system HL60 cell line. Conditions: read-out: IC50 cell growth HL60; cited from earlier work.
For the next data set, the system named is THP‐1 cell line. Particulars: read-out: IC50 cell growth THP‐1; cited from earlier work.
Another data set relates to BD1 (BRD3 and BRD4). Particulars: cited from earlier work.
A further data set has as its target BD1 of BET proteins. Conditions: cited from earlier work.

≈ marks a conversion by molar mass, not a printed value. Like-named read-outs stand apart in the source and are kept apart here.

T3 sequence (P25440 344-453 limits assumed): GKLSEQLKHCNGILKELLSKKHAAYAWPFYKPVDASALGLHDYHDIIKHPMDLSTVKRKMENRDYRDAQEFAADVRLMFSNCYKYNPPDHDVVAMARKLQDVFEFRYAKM
T5 sequence (Q15059 306-415 limits assumed): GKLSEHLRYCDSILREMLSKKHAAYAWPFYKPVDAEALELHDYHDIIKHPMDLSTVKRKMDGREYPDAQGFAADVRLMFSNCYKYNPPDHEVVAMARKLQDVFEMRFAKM
T4 sequence (Q15059 34-140 limits assumed): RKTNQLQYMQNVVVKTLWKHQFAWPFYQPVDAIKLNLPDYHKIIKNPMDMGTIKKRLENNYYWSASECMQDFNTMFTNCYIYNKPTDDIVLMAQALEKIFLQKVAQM
T2 sequence (P25440 74-180 limits assumed): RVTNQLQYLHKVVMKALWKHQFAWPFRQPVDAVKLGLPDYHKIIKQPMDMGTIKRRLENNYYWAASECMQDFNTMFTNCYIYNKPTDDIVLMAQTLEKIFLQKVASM
Method for BRD2(BD1): (§1) TR‐FRET assay. […] Compound was diluted in assay buffer (150 mM HEPES, 150 mM NaCl, 5 % glycerol, 1 mM DTT, and 1 mM CHAPS, pH 7.4), starting from a stock solution of 10 mM (100 % DMSO). The highest concentration tested was 100 μM and from this concentration 11 three‐fold dilutions were prepared. […] TR‐FRET ratio was calculated using the following equation: ratio=acceptorfluorescenceat665nm/donorfluorescenceat615nm×1000
(§2) Compound was tested in triplicate and data were analyzed using GraphPad Prism software (version 8.0) using the equation log(inhibitor) vs. normalized response‐variable slope.
Method for BRD2(BD2): as §1, §2
Method for BRD3(BD1): as §1, §2
Method for BRD3(BD2): as §1, §2

Take `Cc1cc(/N=N/c2ccc(S(=O)(=O)Nc3ccc(C#N)cc3)cc2)cc(C)c1O` [7 b, MS611]: the “CYPs and UGTs “dual‐activity” microsomal stability (percentage of the parent compound turnover)” value in [1] is 7.5±1.0%. Moreover, the solubility in data set [2] is 50 µM (≈ 20.3 µg/mL). The compound further returned an apparent permeability (Papp) at 24 h, 0.2 mM in “in vitro” of 1.1 ×10⁻⁶ cm/s. Also, the results for the inhibitory constant (Ki) at BRD4 BD1 and on BRD4 BD2 were 410 nM and 41300 nM, respectively. Also, the “Selectivity between BD1 and BD2 of BRD2 and BRD3 (words)” value is “almost no selectivity between each BDs domain of BRD3 and BRD2” in data set [3]; “almost no difference in binding affinity between BD1 and BD2 of BRD2 and BRD3” in [3] (listed as MS611).

For `Cc1cc(-c2nc3ccc(S(=O)(=O)Nc4ccccn4)cc3[nH]2)cc(C)c1O` [9 a, 2‐(4‐hydroxy‐3,5‐dimethylphenyl)‐N‐(pyridin‐2‐yl)‐1H‐benzo[d]imidazole‐6‐sulfonamide], the “CYPs and UGTs “dual‐activity” microsomal stability (percentage of the parent compound turnover)” value in data set [1] amounted to 1.0±0.3%. The “Solubility at 100 μM” value in data set [2] (100 μM, aqueous solution with 1 % DMSO) is “still soluble”. In addition, the solubility in data set [2] is 100 µM (≈ 39.4 µg/mL). The compound also showed an apparent permeability (Papp) at 24 h, 0.2 mM in the data set “in vitro” of 0.107 ×10⁻⁶ cm/s. The “ΔTm screening against BET bromodomains” value in data set [4] is given as “increase in the melting temperature of all BET proteins”. Besides, the IC50 is 126 ± 19 nM at BRD2(BD1), 22000 ± 8000 nM at BRD2(BD2), 180 ± 20 nM at BRD3(BD1) and 7000 ± 3000 nM at BRD3(BD2). Also, the “Decrease of cell viability” value in the data set with HeLa cells is “around 30%”.

In the case of `COCc1nc2cnc3cc(-c4c(C)noc4C)c(OC[C@H]4CCNC4)cc3c2n1[C@H](C)c1ccccc1` [Compound 5, GSK778], the “Pharmacokinetic properties” value in data set [5] is recorded as “poor pharmacokinetic properties”.

As for `Cc1cc2c(-c3ccco3)cnc(N[C@@H]3CCN(C)C[C@H]3C(=O)NC3CCCCC3)c2[nH]c1=O` [Compound 6, GSK789], the IC50 is 30 nM with BD1 in all BET proteins, 25 nM with MV4‐11 cell line, 390 nM in the data set on HL60 cell line and 258 nM in the data set on THP‐1 cell line. For the same compound, the “Selectivity for BD1 over BD2 in all BET proteins” value with BD1 in all BET proteins is reported as 1000 fold.

For the compound `COc1ccccc1S(=O)(=O)Nc1ccc2c3c(cc(-n4cnc(C)c4)nc13)C(=O)N2C` [LT052], the concentration for half-maximal inhibition (IC50) in the data set with BD1 (BRD3 and BRD4) (read-out: IC50 towards BD1) is 87.7 nM. Besides, the “Selectivity for BD1 over BD2” value in the data set with BD1 (BRD3 and BRD4) (tested against BRD3 and BRD4) is “over 100 fold”.

On to `CC(=O)NCCCCn1c2c(c3ccccc31)C(=O)NCC2` [Olinone], for which the equilibrium dissociation constant (Kd) on BD1 of BET proteins was 3400 nM.
